From PubChem BioAssay AID328 (DTP/NCI, 2004)
Toxic doses and inconclusive results are not listed. The calls were made as follows: active = survival T/C of 150% or more; inactive = T/C below 125% in these data.

System: BDF1 mice, P388 leukemia ip, median survival T/C
Assay: NCI In Vivo Anticancer Drug Screen. Data for tumor model P388 Leukemia (intraperitoneal) in B6D2F1 (BDF1) mice
Details: endpoint: median survival time, higher = longer survival
How it was run: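 In tumour-bearing mice, survival after compound treatment is set against the vehicle group and given as a quotient.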

[1] = dose: 100.0 mg/kg/injection, schedule: Q01DX009 (ip), vehicle: saline with Tween-80
[2] = dose: 200.0 mg/kg/injection, schedule: Q01DX009 (ip), vehicle: saline with Tween-80
[3] = dose: 100.0 mg/kg/injection, schedule: Q04DX003 (ip), vehicle: saline with Tween-80
[4] = dose: 50.0 mg/kg/injection, schedule: Q01DX009 (ip), vehicle: saline with Tween-80
[5] = dose: 200.0 mg/kg/injection, schedule: Q04DX003 (ip), vehicle: saline with Tween-80
[6] = dose: 400.0 mg/kg/injection, schedule: Q04DX003 (ip), vehicle: saline with Tween-80
[7] = dose: 12.5 mg/kg/injection, schedule: Q01DX009 (ip), vehicle: saline
[8] = dose: 100.0 mg/kg/injection, schedule: Q04DX003 (ip), vehicle: Klucel (hydroxypropylcellulose) (HPC)
[9] = dose: 1.56 mg/kg/injection, schedule: Q01DX009 (ip), vehicle: saline

Measured: T/C

O=C(OC(=O)c1ccc([N+](=O)[O-])cc1)c1ccc([N+](=O)[O-])cc1
inactive: dose: 100.0 mg/kg/injection, schedule: Q04DX003 (sc), vehicle: olive oil, sesame oil, peanut oil 110 % of control | dose: 200.0 mg/kg/injection, schedule: Q04DX003 (sc), vehicle: olive oil, sesame oil, peanut oil 105 % of control | dose: 400.0 mg/kg/injection, schedule: Q04DX003 (sc), vehicle: olive oil, sesame oil, peanut oil 105 % of control

NC(N)=NC(N)=Nc1ccc(S(=O)(=O)O)cc1
inactive: [1] 103 % of control | [2] 97 % of control | dose: 400.0 mg/kg/injection, schedule: Q01DX009 (ip), vehicle: saline with Tween-80 94 % of control

CCCCOC(=O)c1ccc(NC(=O)Nc2ccccc2OC)cc1
inactive: [3] 100 % of control

O=C(/C=C/c1cccc(O)c1)c1ccccc1
inactive: [4] 91 % of control | [1] 99 % of control | [2] 101 % of control

CCCCC[C@H](O)/C=C/[C@@H]1[C@@H](C/C=C\CCCC(=O)O)[C@@H](O)C[C@H]1O
inactive: dose: 0.25 mg/kg/injection, schedule: Q#A X020 (ip), vehicle: saline 110 % of control | dose: 0.5 mg/kg/injection, schedule: Q#A X020 (ip), vehicle: saline 101 % of control | dose: 1.0 mg/kg/injection, schedule: Q#A X020 (ip), vehicle: saline 100 % of control | dose: 2.5 mg/kg/injection, schedule: Q04DX003 (ip), vehicle: saline with Tween-80 94 % of control | dose: 5.0 mg/kg/injection, schedule: Q04DX002 (ip), vehicle: saline 97 % of control | dose: 10.0 mg/kg/injection, schedule: Q04DX003 (ip), vehicle: saline with Tween-80 105 % of control | dose: 20.0 mg/kg/injection, schedule: Q04DX002 (ip), vehicle: saline 105 % of control | dose: 40.0 mg/kg/injection, schedule: Q04DX002 (ip), vehicle: saline 105 % of control | dose: 80.0 mg/kg/injection, schedule: Q04DX002 (ip), vehicle: saline 97 % of control

CCOc1ccccc1NC(=O)c1ccc(Cl)cc1
inactive: dose: 100.0 mg/kg/injection, schedule: Q01DX001 (ip), vehicle: saline with Tween-80 90 % of control | dose: 200.0 mg/kg/injection, schedule: Q01DX001 (ip), vehicle: saline with Tween-80 90 % of control | dose: 400.0 mg/kg/injection, schedule: Q01DX001 (ip), vehicle: saline with Tween-80 95 % of control

O=C1C(Cl)=C(Sc2nc3ccccc3s2)C(=O)c2ccccc21
inactive: dose: 50.0 mg/kg/injection, schedule: Q01DX005 (ip), vehicle: saline with Tween-80 112 % of control

O=C1c2ccccc2S(=O)(=O)N1CC(O)COc1ccc(Cl)cc1 (stereo not drawn)
inactive: [3] 104 % of control | [5] 100 % of control | [6] 95 % of control

Cc1cccc(N)n1 (tested in a mixture with another compound)
inactive: [7] 105 % of control | dose: 25.0 mg/kg/injection, schedule: Q01DX009 (ip), vehicle: saline 94 % of control | dose: 50.0 mg/kg/injection, schedule: Q01DX009 (ip), vehicle: saline 89 % of control

[N-]=[N+]=NC(=O)c1ccccn1
inactive: dose: 25.0 mg/kg/injection, schedule: Q01DX009 (ip), vehicle: saline with Tween-80 101 % of control

O=[N+]([O-])c1cc2c3ccccc3ccc2c2ccccc12
inactive: dose: 100.0 mg/kg/injection, schedule: Q01DX009 (ip), vehicle: Klucel (hydroxypropylcellulose) (HPC) 104 % of control | [8] 100 % of control | dose: 200.0 mg/kg/injection, schedule: Q01DX009 (ip), vehicle: Klucel (hydroxypropylcellulose) (HPC) 100 % of control | dose: 200.0 mg/kg/injection, schedule: Q04DX003 (ip), vehicle: Klucel (hydroxypropylcellulose) (HPC) 100 % of control | dose: 400.0 mg/kg/injection, schedule: Q01DX009 (ip), vehicle: Klucel (hydroxypropylcellulose) (HPC) 104 % of control | dose: 400.0 mg/kg/injection, schedule: Q04DX003 (ip), vehicle: Klucel (hydroxypropylcellulose) (HPC) 100 % of control

COc1cccc(CCCC(=O)C(C)(C)S(C)=O)c1 (stereo not drawn)
inactive: [4] 103 % of control | [1] 95 % of control | [2] 103 % of control

CC(C)c1cccc(C(C)C)c1NC(=O)N1CCOCC1
inactive: [4] 100 % of control | [1] 93 % of control | [2] 90 % of control

CC[P+]1(c2ccccc2)CCCc2ccc3ccccc3c21 (stereo not drawn)
inactive: [9] 116 % of control | dose: 3.12 mg/kg/injection, schedule: Q01DX009 (ip), vehicle: saline 120 % of control | dose: 30.0 mg/kg/injection, schedule: Q01DX009 (ip), vehicle: saline 90 % of control

CCn1cnc2c(=S)nc(N)[nH]c21
inactive: dose: 3.12 mg/kg/injection, schedule: Q01DX009 (ip), vehicle: Klucel (hydroxypropylcellulose) (HPC) 100 % of control | dose: 6.25 mg/kg/injection, schedule: Q01DX009 (ip), vehicle: Klucel (hydroxypropylcellulose) (HPC) 118 % of control | dose: 12.5 mg/kg/injection, schedule: Q01DX009 (ip), vehicle: Klucel (hydroxypropylcellulose) (HPC) 90 % of control | dose: 25.0 mg/kg/injection, schedule: Q04DX003 (ip), vehicle: Klucel (hydroxypropylcellulose) (HPC) 100 % of control | dose: 50.0 mg/kg/injection, schedule: Q04DX003 (ip), vehicle: Klucel (hydroxypropylcellulose) (HPC) 100 % of control | [8] 104 % of control

O=C1C2ON=C(c3ccccc3)C2C(=O)N1OS(=O)(=O)c1ccccc1 (stereo not drawn)
inactive: [1] 100 % of control | [3] 100 % of control | [2] 109 % of control | [5] 100 % of control | [6] 100 % of control

Nc1nc(-c2ccccc2)cc2ccccc12
inactive: dose: 12.5 mg/kg/injection, schedule: Q04DX003 (ip), vehicle: saline with Tween-80 100 % of control | dose: 25.0 mg/kg/injection, schedule: Q04DX003 (ip), vehicle: saline with Tween-80 97 % of control

CCN(CC)CCCC(C)Nc1ccnc2cc(Cl)cnc12 (stereo not drawn) (tested in a mixture with another compound)
inactive: [4] 107 % of control | [1] 114 % of control | [2] 98 % of control

CC(C)(C)OC(=O)NN=C1CCC(C(C)(C)C)CC1 (stereo not drawn)
inactive: dose: 83.75 mg/kg/injection, schedule: Q01DX001 (ip), vehicle: Klucel (hydroxypropylcellulose) (HPC) 95 % of control | [1] 109 % of control | dose: 150.0 mg/kg/injection, schedule: Q04DX003 (ip), vehicle: Klucel (hydroxypropylcellulose) (HPC) 100 % of control | dose: 167.5 mg/kg/injection, schedule: Q01DX001 (ip), vehicle: Klucel (hydroxypropylcellulose) (HPC) 100 % of control | dose: 225.0 mg/kg/injection, schedule: Q04DX003 (ip), vehicle: Klucel (hydroxypropylcellulose) (HPC) 100 % of control | dose: 335.0 mg/kg/injection, schedule: Q01DX001 (ip), vehicle: Klucel (hydroxypropylcellulose) (HPC) 95 % of control | dose: 335.0 mg/kg/injection, schedule: Q04DX003 (ip), vehicle: Klucel (hydroxypropylcellulose) (HPC) 90 % of control

CCOC1OCN(c2cccc(Cl)c2)CC1(C)C (stereo not drawn)
inactive: [4] 98 % of control | [1] 112 % of control | [2] 114 % of control

CC(C)CC(NC(=O)C(C)N)C(=O)NCC(=O)O (stereo not drawn)
inactive: dose: 50.0 mg/kg/injection, schedule: Q01DX005 (ip), vehicle: saline 100 % of control | dose: 100.0 mg/kg/injection, schedule: Q01DX005 (ip), vehicle: saline 91 % of control | dose: 200.0 mg/kg/injection, schedule: Q01DX005 (ip), vehicle: saline 103 % of control

Cc1nnc2ccnn2c1C
inactive: [9] 108 % of control | dose: 3.13 mg/kg/injection, schedule: Q01DX009 (ip), vehicle: saline 102 % of control | dose: 6.25 mg/kg/injection, schedule: Q01DX009 (ip), vehicle: saline 108 % of control | [7] 100 % of control
